Assay results taken from patent publication US10076116B2, “N-cycloalkyl-N-(biheterocyclymethylene)-(thio)carboxamide derivatives” (BAYER CROPSCIENCE AKTIENGESELLSCHAFT, priority 2013, dated 2018).
Blank lines part the entries; values can stand above or below the compound they belong to.

Assays:
Alternaria brassicae = assay: In vivo preventive test on Alternaria brassicae (leaf spot on radish); conditions: for Efficacy (Table A2) / Efficacy (Table A1): dose 500 ppm, radish, 6 days after inoculation; for efficacy: 500 ppm of active ingredient, radish plants sprayed 24 hours before inoculation, evaluated 6 days after inoculation
Protocol: Example A: In Vivo Preventive Test on Alternaria brassicae (Leaf Spot on Radish) Solvent: 5% by volume of Dimethyl sulfoxide • 10% by volume of Acetone Emulsifier: 1 μL of TWEEN® 80 (Polyoxyethylene (20) sorbitan monooleate) per mg of active ingredient The active ingredients are made soluble and homogenized in a mixture of Dimethyl sulfoxide/Acetone/TWEEN® 80 and then diluted in water to the desired concentration. The young plants of radish are treated by spraying the active ingredient prepared as described above. Control plants are treated only with an aqueous solution of Acetone/Dimethyl sulfoxide/TWEEN® 80. After 24 hours, the plants are contaminated by spraying the leaves with an aqueous suspension of Alternaria brassicae spores. The contaminated radish plants are incubated for 6 days at 20° C. and at 100% relative humidity. The test is evaluated 6 days after the inoculation. 0% means an efficacy which corresponds to that of the control plants while an efficacy of 100% means that no disease is observed.

Pyrenophora teres = assay: In vivo preventive test on Pyrenophora teres (net blotch on barley); conditions: for efficacy: 500 ppm of active ingredient, barley plants, evaluated 14 days after inoculation; for Efficacy (Table D1): dose 500 ppm, barley
Protocol: Example D: In Vivo Preventive Test on Pvrenophora Teres (Net Blotch on Barley) Solvent: 5% by volume of Dimethyl sulfoxide • 10% by volume of Acetone Emulsifier: 1 μL of TWEEN® 80 per mg of active ingredient The active ingredients are made soluble and homogenized in a mixture of Dimethyl sulfoxide/Acetone/TWEEN® 80 and then diluted in water to the desired concentration. The young plants of barley are treated by spraying the active ingredient prepared as described above. Control plants are treated only with an aqueous solution of Acetone/Dimethyl sulfoxide/TWEEN® 80. After 24 hours, the plants are contaminated by spraying the leaves with an aqueous suspension of Pyrenophora teres spores. The contaminated barley plants are incubated for 48 hours at 20° C. and at 100% relative humidity and then for 12 days at 20° C. and at 70-80% relative humidity. The test is evaluated 14 days after the inoculation. 0% means an efficacy which corresponds to that of the control plants while an efficacy of 100% means that no disease is observed.

[1] = log P by HPLC on reversed-phase column (C 18), EEC Directive 79/831 Annex V.A8; assay type: physicochemical; conditions: HPLC C 18, 40° C., 0.1% aqueous formic acid and acetonitrile, gradient 10% to 90% acetonitrile
Protocol: In table 1, the log P values were determined in accordance with EEC Directive 79/831 Annex V.A8 by HPLC (High Performance Liquid Chromatography) on a reversed-phase column (C 18), using the method described below: Temperature: 40° C.; Mobile phases: 0.1% aqueous formic acid and acetonitrile; linear gradient from 10% acetonitrile to 90% acetonitrile. Calibration was carried out using unbranched alkan-2-ones (comprising 3 to 16 carbon atoms) with known log P values (determination of the log P values by the retention times using linear interpolation between two successive alkanones). lambda-max-values were determined using UV-spectra from 200 nm to 400 nm and the peak values of the chromatographic signals.

SMILES: Cn1nc(C(F)F)c(C(=O)N(Cc2sc3ccccc3c2-c2cccnc2)C2CC2)c1F [CMP4, N-cyclopropyl-3-(difluoromethyl)-5-fluoro-1-methyl-N-{[3-(pyridin-3-yl)-1-benzothiophen-2-yl]methyl}-1H-pyrazole-4-carboxamide, reference compound]
Efficacy (Table A2) (Alternaria brassicae): 43%

SMILES: Cn1nc(C(F)F)c(C(=O)N(Cc2sc3ccccc3c2-c2ccncc2)C2CC2)c1F [CMP6, N-cyclopropyl-3-(difluoromethyl)-5-fluoro-1-methyl-N-{[3-(pyridin-4-yl)-1-benzothiophen-2-yl]methyl}-1H-pyrazole-4-carboxamide]
efficacy (Pyrenophora teres): no protection | Efficacy (Table D1) (Pyrenophora teres): 0%

logP [1]: 4.53
SMILES: Cn1nc(C(F)F)c(C(=O)N(Cc2nn(-c3ccccc3)cc2-c2csc3ccccc23)C2CC2)c1F [I.03]
Efficacy (Table A1) (Alternaria brassicae): 93%

SMILES: Cn1nc(C(F)F)c(C(=O)N(Cc2nn(-c3ccccc3)cc2-c2cccnc2)C2CC2)c1F [CMP1, N-cyclopropyl-3-(difluoromethyl)-5-fluoro-1-methyl-N-{[1-phenyl-4-(pyridin-3-yl)-1H-pyrazol-3-yl]methyl}-1H-pyrazole-4-carboxamide, reference compound]
efficacy (Alternaria brassicae): no protection | Efficacy (Table A1) (Alternaria brassicae): 0%

chromatographic logP ([1]; reversed-phase HPLC column (C 18)): 4.61
SMILES: Cn1nc(C(F)F)c(C(=O)N(Cc2sc3ccccc3c2-c2coc3ccccc23)C2CC2)c1F [I.53, N-{[3-(1-benzofuran-3-yl)-1-benzothiophen-2-yl]methyl}-N-cyclopropyl-3-(difluoromethyl)-5-fluoro-1-methyl-1H-pyrazole-4-carboxamide]
efficacy (Alternaria brassicae; listed as 1.53): total protection | Efficacy (Table A2) (Alternaria brassicae): 100% | Efficacy (Table D1) (Pyrenophora teres): 83%

SMILES: COc1cccc(-c2c(CN(C(=O)c3c(C(F)F)nn(C)c3F)C3CC3)sc3ccccc23)n1 [CMP5, N-cyclopropyl-3-(difluoromethyl)-5-fluoro-N-{[3-(6-methoxypyridin-2-yl)-1-benzothiophen-2-yl]methyl}-1-methyl-1H-pyrazole-4-carboxamide]
Efficacy (Table A2) (Alternaria brassicae): 0% | efficacy (Pyrenophora teres): no protection | Efficacy (Table D1) (Pyrenophora teres): 0%

logP [1]: 4.16
SMILES: Cn1nc(C(F)F)c(C(=O)N(Cc2nn(-c3ccccc3)cc2-c2ccc3c(ccn3C)c2)C2CC2)c1F [I.01]
Efficacy (Table A1) (Alternaria brassicae): 71%
